Like-named read-outs stand apart in the source and are kept apart here.
Legend:
[1] = tested on: Key Grass and Sedge Weeds as well as Grass Crops; assay: Post-Emergent Test II (Table 6); assay type: in vivo; conditions: post-emergence, 336 h, 14 days after application; for pest or weed control at 70 g/ha: 70 g ai/ha; for pest or weed control at 140 g/ha: 140 g ai/ha
In short: (§1)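 Seedlings are raised 7-21 days in Metro-Mix 360 (pH 6.0-6.8) under greenhouse conditions, then sprayed at the first or second true leaf stage. Application is 187 L/ha, with serial rates down to 1/16× of the highest. Plants are subirrigated, and percent injury is rated visually after 14 days.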

[2] = tested on: Key Broadleaf Weed and Crop Species; assay: Post-Emergent Test II (Table 5); assay type: in vivo; conditions: post-emergence, 336 h; for pest or weed control at 70 g/ha: application rate 70 (kg ai/ha; footnote: g ai/ha); for pest or weed control at 140 g/ha: application rate 140 (kg ai/ha; footnote: g ai/ha)
In short: as §1

[3] = CYPSS, read-out: Visual Growth Reduction (%) 14 Days After Application CYPSS
[4] = DIGSA: crabgrass (Digitaria sanguinalis), read-out: Visual Growth Reduction (%) 14 Days After Application DIGSA
[5] = ECHSS, read-out: Visual Growth Reduction (%) 14 Days After Application ECHSS
[6] = ORYSS (crop), read-out: Visual Growth Reduction (%) 14 Days After Application ORYSS
[7] = SETFA: giant foxtail (Setaria faberi), read-out: Visual Growth Reduction (%) 14 Days After Application SETFA
[8] = SORVU: grain sorghum (Sorghum vulgare), read-out: Visual Growth Reduction (%) 14 Days After Application SORVU
[9] = TRZSS (crop), read-out: Visual Growth Reduction (%) 14 Days After Application TRZSS
[10] = ZEAMX: maize, corn (Zea mays), read-out: Visual Growth Reduction (%) 14 Days After Application ZEAMX
[11] = Abutilon theophrasti, ABUTH: velvetleaf (Abutilon theophrasti), read-out: Visual Growth Reduction (%) 14 Days After Application ABUTH
[12] = Amaranthus retroflexus, AMARE: redroot pigweed (Amaranthus retroflexus), read-out: Visual Growth Reduction (%) 14 Days After Application AMARE
[13] = Brassica napus, BRSSS: oilseed rape, canola (Brassica napus), read-out: Visual Growth Reduction (%) 14 Days After Application BRSSS
[14] = Chenopodium album, CHEAL: lambsquarters (Chenopodium album), read-out: Visual Growth Reduction (%) 14 Days After Application CHEAL
[15] = Euphorbia heterophylla, EPHHL: wild poinsettia (Euphorbia heterophylla), read-out: Visual Growth Reduction (%) 14 Days After Application EPHHL
[16] = Helianthus annuus, HELAN: sunflower (Helianthus annuus), read-out: Visual Growth Reduction (%) 14 Days After Application HELAN
[17] = Viola tricolor, VIOTR: wild pansy (Viola tricolor), read-out: Visual Growth Reduction (%) 14 Days After Application VIOTR

SMILES	pest or weed control at 70 g/ha [1, 3]	pest or weed control at 140 g/ha [1, 3]	pest or weed control at 70 g/ha [1, 4]	pest or weed control at 140 g/ha [1, 4]	pest or weed control at 70 g/ha [1, 5]	pest or weed control at 140 g/ha [1, 5]	pest or weed control at 70 g/ha [1, 6]	pest or weed control at 140 g/ha [1, 6]	pest or weed control at 70 g/ha [1, 7]	pest or weed control at 140 g/ha [1, 7]	pest or weed control at 70 g/ha [1, 8]	pest or weed control at 140 g/ha [1, 8]	pest or weed control at 70 g/ha [1, 9]	pest or weed control at 140 g/ha [1, 9]	pest or weed control at 70 g/ha [1, 10]	pest or weed control at 140 g/ha [1, 10]	pest or weed control at 70 g/ha [2, 11]	pest or weed control at 140 g/ha [2, 11]	pest or weed control at 70 g/ha [2, 12]	pest or weed control at 140 g/ha [2, 12]	also measured
COC(=O)c1nc(-c2ccc(Cl)c(F)c2OC)nc(N)c1OC [Compound 70, Methyl 6-amino-2-(4-chloro-3-fluoro-2-methoxyphenyl)-5-methoxypyrimidine-4-carboxylate]	0 to 29%	0 to 29%	0 to 29%	0 to 29%	0 to 29%	0 to 29%	0 to 29%	0 to 29%	0 to 29%	0 to 29%	0 to 29%	0 to 29%	0 to 29%	0 to 29%	0 to 29%	0 to 29%	85 to 94%	60 to 74%	95 to 100%	95 to 100%	pest or weed control at 70 g/ha [2, 13]: 95 to 100%; pest or weed control at 140 g/ha [2, 13]: 95 to 100%; pest or weed control at 70 g/ha [2, 14]: 95 to 100%; pest or weed control at 140 g/ha [2, 14]: 95 to 100%; pest or weed control at 70 g/ha [2, 15]: 0 to 29%; pest or weed control at 140 g/ha [2, 15]: 0 to 29%; pest or weed control at 70 g/ha [2, 16]: 95 to 100%; pest or weed control at 140 g/ha [2, 16]: 95 to 100%; pest or weed control at 70 g/ha [2, 17]: 0 to 29%; pest or weed control at 140 g/ha [2, 17]: 0 to 29%; melting point: 60 to 61 °C
COc1nc(C(F)(F)F)ccc1-c1nc(C(=O)O)c(Cl)c(N)c1F [Compound 2, 4-amino-5-chloro-3-fluoro-2′-methoxy-6′-(trifluoromethyl)-[2,3′-bipyridine]-6-carboxylic acid]	0 to 29%	0 to 29%	0 to 29%	0 to 29%	0 to 29%	0 to 29%	0 to 29%	0 to 29%	0 to 29%	0 to 29%	0 to 29%	0 to 29%	0 to 29%	0 to 29%	0 to 29%	0 to 29%	0 to 29%	0 to 29%	0 to 29%	0 to 29%	pest or weed control at 70 g/ha [2, 13]: 30 to 44%; pest or weed control at 140 g/ha [2, 13]: 45 to 59%; pest or weed control at 70 g/ha [2, 14]: 0 to 29%; pest or weed control at 140 g/ha [2, 14]: 0 to 29%; pest or weed control at 70 g/ha [2, 15]: 0 to 29%; pest or weed control at 140 g/ha [2, 15]: 0 to 29%; pest or weed control at 70 g/ha [2, 16]: 60 to 74%; pest or weed control at 140 g/ha [2, 16]: 60 to 74%; pest or weed control at 70 g/ha [2, 17]: 0 to 29%; pest or weed control at 140 g/ha [2, 17]: 0 to 29%; melting point: 133 to 134 °C
Nc1c(F)c(-c2ccc(OC(F)F)nc2)nc(C(=O)O)c1Cl [Compound 66]	45 to 59%	45 to 59%	60 to 74%	60 to 74%	75 to 84%	75 to 84%	0 to 29%	0 to 29%	60 to 74%	60 to 74%	30 to 44%	75 to 84%	45 to 59%	60 to 74%	60 to 74%	60 to 74%	75 to 84%	85 to 94%	0 to 29%	0 to 29%	pest or weed control at 70 g/ha [2, 13]: 0 to 29%; pest or weed control at 140 g/ha [2, 13]: 0 to 29%; pest or weed control at 70 g/ha [2, 14]: 85 to 94%; pest or weed control at 140 g/ha [2, 14]: 95 to 100%; pest or weed control at 70 g/ha [2, 15]: 95 to 100%; pest or weed control at 140 g/ha [2, 15]: 95 to 100%; pest or weed control at 70 g/ha [2, 16]: 85 to 94%; pest or weed control at 140 g/ha [2, 16]: 85 to 94%; pest or weed control at 70 g/ha [2, 17]: 60 to 74%; pest or weed control at 140 g/ha [2, 17]: 60 to 74%; melting point: 134 to 136 °C

— patent US10765114B2, “4-amino-6-(pyridyl and 2-substitutedphenyl)-picolinates and 6-amino-2-(pyridyl and 2-substitutedphenyl)-pyrimidine-4-carboxylates and their use as herbicides” (Dow AgroSciences LLC, priority 2013, dated 2020)
